Assay results published in US5977136A, “Tetrahydroquinolines as NMDA antagonists” (Glaxo Wellcome SpA, priority 1995, dated 1999).
pKi: −log10 of the molar value. Where two headings read alike, the source gives them in different places.

Key:
[1] = tested on: NMDA induced convulsions in mice; assay: Inhibition of NMDA induced convulsions in the mouse (procedure of Chiamulera C et al.); format: in vivo; conditions: read-out: ED50 (dose required to protect 50% of the animals from the convulsive action of the NMDA)
Source text: In this test the ability of the compound when administered iv to inhibit the generalized seizures induced by an intracerebroventricular injection of NMDA in mice was examined at a number of dose levels.

[2] = target: T1, strychnine insensitive glycine binding site located on the NMDA receptor complex (Rattus norvegicus, UniProt P35439); assay: biochemical; conditions: for Ki: strychnine insensitive glycine binding site, read-out: pKi (converted)
T1 construct: determined using the procedure of Kishimoto H. et al J. Neurochem 1981, 37, 1015-1024; from tissue

[3] = mice, compound iv, generalized seizures induced by intracerebroventricular injection of NMDA

Compound	Ki [2] [nM]	further results
O=C(/C=C1\CC(C(=O)[O-])Nc2cc(Cl)cc(Cl)c21)Nc1ccccc1.[Na+] (racemic)		ED50 ([1]; iv): 1 mg/kg
O=C(/C=C1\CC(C(=O)[O-])Nc2cc(Cl)ccc21)Nc1ccccc1.[Na+] (racemic) [Example 2, (+/-)(E)7-Chloro-4-Phenylcarbamoylmethylene-1,2,3,4-Tetrahydro-Quinoline-2- Carboxylic Acid Sodium Salt]		pKi [2]: 7.40; ED50 [1, 3]: 0.2 mg/kg
CC(=O)Nc1ccc(NC(=O)/C=C2\CC(C(=O)O)Nc3cc(Cl)cc(Cl)c32)cc1 (racemic) [Example 5, (+/-)(E)-4-(4-Acetylamino-Phenylcarbamoylmethylene)-5,7-Dichloro-1,2,3,4-Tetrahydro-Quinoline-2-Carboxylic Acid]	7.94	ED50 [1, 3]: 0.2 mg/kg
CC(=O)Nc1cccc(NC(=O)/C=C2\CC(C(=O)O)Nc3cc(Cl)cc(Cl)c32)c1 (racemic) [Example 6, (+/-)(E)-4-(3-Acetylamino-Phenylcarbamoylmethylene)-5,7-Dichloro-1,2,3,4-Tetrahydro-Quinoline-2-Carboxylic Acid]	15.8	
O=C(/C=C1\CC(C(=O)O)Nc2cc(Cl)cc(Cl)c21)Nc1cccc(Cl)c1 (racemic) [Example 7, (+/-)(E)-5,7-Dichloro-4-[3-(Chloro)Phenylcarbamoylmethylene]-1,2,3,4-Tetrahydro-Quinoline-2-Carboxylic Acid]	39.8	
Nc1ccc(NC(=O)/C=C2\CC(C(=O)O)Nc3cc(Cl)cc(Cl)c32)cc1 (racemic) [Example 8, (+/-)(E)-4-(4-Amino-Phenylcarbamoylmethylene)-5,7-Dichloro-1,2,3,4-Tetrahydro-Quinoline-2-Carboxylic Acid]	15.8	
NC(=O)NCc1ccc(NC(=O)/C=C2\CC(C(=O)O)Nc3cc(Cl)cc(Cl)c32)cc1 (racemic) [Example 9, (+/-)(E)-5,7-Dichloro-4-[4(Ureidomethyl)Phenylcarbamoylmethylene]-1,2,3,4-Tetrahydro-Quinoline-2-Carboxylic Acid]	3.98	
O=CNCc1ccc(NC(=O)/C=C2\CC(C(=O)O)Nc3cc(Cl)cc(Cl)c32)cc1 (racemic) [Example 10, (+/-)(E)-5,7-Dichloro-4-[4(Formylaminomethyl)Phenylcarbomoylmethylene]-1,2,3,4-Tetrahydro-Quinoline-2-Carboxylic Acid]	5.01	
CC(=O)NCc1ccc(NC(=O)/C=C2\CC(C(=O)O)Nc3cc(Cl)cc(Cl)c32)cc1 (racemic) [Example 11, (+/-)(E)-5,7-Dichloro-4-[4(Acetylaminomethyl)Phenylcarbomoylmethylene]-1,2,3,4-Tetrahydro-Quinoline-2-Carboxylic Acid]	5.01	
CC(C)C(=O)Nc1ccc(NC(=O)/C=C2\CC(C(=O)O)Nc3cc(Cl)cc(Cl)c32)cc1 (racemic) [Example 12, (+/-)(E)-5,7-Dichloro-4-[4(Isobutyrylamino)Phenylcarbomoylmethylene]-1,2,3,4-Tetrahydro-Quinoline-2-Carboxylic Acid]	15.8	
CC(C)C(=O)NCc1ccc(NC(=O)/C=C2\CC(C(=O)O)Nc3cc(Cl)cc(Cl)c32)cc1 (racemic) [Example 13]	15.8	
O=C(/C=C1\CC(C(=O)O)Nc2cc(Cl)cc(Cl)c21)Nc1ccc(CN2CCOCC2)cc1 (racemic) [Example 14, (+/-)(E)-5,7-Dichloro-4-(4-Morpholin-4-Ylmethyl-Phenylcarbamoylmethylene)-1,2,3,4-Tetrahydro-Quinoline-2-Carboxylic Acid]	7.94	
O=C(O)Cc1ccc(NC(=O)/C=C2\CC(C(=O)O)Nc3cc(Cl)cc(Cl)c32)cc1 (racemic) [Example 15, (+/-)(E)-4-(4-Carboxymethyl-Phenylcarbamoylmethylene)-5,7-Dichloro-1,2,3,4-Tetrahydro-Quinoline-2-Carboxylic Acid]	19.1	
NC(=O)Cc1ccc(NC(=O)/C=C2\CC(C(=O)O)Nc3cc(Cl)cc(Cl)c32)cc1 (racemic) [Example 16, (+/-)(E)-5,7-Dichloro-4-(4-Carbamoylmethyl-Phenylcarbamoylmethylene)-1,2,3,4-Tetrahydro-Quinoline-2-Carboxylic Acid]	6.61	
CC(C)C(=O)NCCc1ccc(NC(=O)/C=C2\CC(C(=O)O)Nc3cc(Cl)cc(Cl)c32)cc1 (racemic) [Example 17, (+/-)(E)-5,7-Dichloro-4-[4-(2-Isobutyrylamino-Ethyl)Phenylcarbamoylmethylene]-1,2,3,4-Tetrahydro-Quinoline-2-Carboxylic Acid]	12.6	
CC(=O)NCCc1ccc(NC(=O)/C=C2\CC(C(=O)O)Nc3cc(Cl)cc(Cl)c32)cc1 (racemic) [Example 18, (+/-)(E)-5,7-Dichloro-4-[4-(2-Acetylamino-Ethyl)Phenylcarbamoylmethylene]-1,2,3,4-Tetrahydro-Quinoline-2-Carboxylic Acid]	12.6	
CC(C)CC(=O)Nc1ccc(NC(=O)/C=C2\CC(C(=O)O)Nc3cc(Cl)cc(Cl)c32)cc1 (racemic) [Example 19, (+/-)(E)-5,7-Dichloro-4-[4-(3-Methyl-Butyrylamino)-Phenylcarbamoylmethylene]-1,2,3,4-Tetrahydro-Quinoline-2-Carboxylic Acid]	18.6	
O=C(/C=C1\CC(C(=O)O)Nc2cc(Br)cc(Br)c21)Nc1ccccc1 (racemic) [Example 21, (+/-)-(E)-5,7-Dibromo-4-Phenylcarbamoylmethylene-1,2,3,4-Tetrahydroquinoline-2-Carboxylic Acid]	26.3	
O=C(/C=C1\CC(C(=O)[O-])Nc2cc(Cl)cc(Cl)c21)Nc1ccccc1.[Na+] (racemic) [Sodium Salt]	6.31	
